Laboratory results as given in the supplement of paper PMC10307832.

How the values were obtained:
Assay in all cases: relative viability (nuclei count vs DMSO), 5 days (fraction); higher = more cells survive
[1] = compound: CCn1c(-c2nonc2N)nc2c(C#CC(C)(C)O)ncc(OC[C@H]3CCCNC3)c21 + CC(C)C[C@H](NC(=O)[C@H](Cc1ccccc1)NC(=O)c1cnccn1)B(O)O [Bortezomib] (partner 0.002 µM)
Outline: (§1)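 Relative viability is defined as nuclei in treated wells over nuclei in vehicle wells. Duplicate plates were run and medians reported. Lung cancer cell lines in 1536-well plates were dosed by pin tool one day after seeding, with one drug or with a fixed anchor-drug dose plus five library-drug doses (not always all listed) in √10 steps, and nuclei were counted after 5 days.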

[2] = compound: CCn1c(-c2nonc2N)nc2c(C#CC(C)(C)O)ncc(OC[C@H]3CCCNC3)c21 + C[C@]1(O)C[C@@H](c2nc(-c3ccc4ccc(-c5ccccc5)nc4c3)c3c(N)nccn32)C1 [Linsitinib] (partner 1 µM)
Outline: as §1

BAM7 + Olaparib = compound: CCOC1=CC=CC=C1N=NC2=C(NN(C2=O)C3=NC(=CS3)C4=CC=CC=C4)C [BAM7] + O=C(c1cc(Cc2n[nH]c(=O)c3ccccc23)ccc1F)N1CCN(C(=O)C2CC2)CC1 [Olaparib] (partner 8 µM)
Outline: as §1

BAM7 + Alpelisib = compound: CCOC1=CC=CC=C1N=NC2=C(NN(C2=O)C3=NC(=CS3)C4=CC=CC=C4)C [BAM7] + Cc1nc(NC(=O)N2CCC[C@H]2C(N)=O)sc1-c1ccnc(C(C)(C)C(F)(F)F)c1 [Alpelisib] (partner 2 µM)
Outline: as §1

Cell Line | relative viability ([1]; first compound 0.01 µM) | relative viability ([1]; first compound 0.03162 µM) | relative viability ([1]; first compound 0.1 µM) | relative viability ([1]; first compound 0.3162 µM) | relative viability ([1]; first compound 1 µM) | relative viability ([2]; first compound 0.01 µM) | relative viability ([2]; first compound 0.03162 µM) | relative viability ([2]; first compound 0.1 µM) | relative viability ([2]; first compound 0.3162 µM) | relative viability ([2]; first compound 1 µM) | relative viability (BAM7 + Olaparib; first compound 0.5 µM) | relative viability (BAM7 + Olaparib; first compound 5 µM) | relative viability (BAM7 + Olaparib; first compound 15.81 µM) | relative viability (BAM7 + Olaparib; first compound 50 µM) | relative viability (BAM7 + Alpelisib; first compound 0.5 µM) | relative viability (BAM7 + Alpelisib; first compound 5 µM) | relative viability (BAM7 + Alpelisib; first compound 15.81 µM) | relative viability (BAM7 + Alpelisib; first compound 50 µM)
SW 1573 | 0.993 | 0.946 | 0.864 | 0.908 | 0.646 | 0.827 | 0.793 | 0.81 | 0.7 | 0.772 | 0.574 | 0.583 | 0.461 | 0.46 | 0.777 | 0.833 | 0.85 | 0.75
NCI-H727 | 0.782 | 0.747 | 0.999 | 0.613 | 0.791 | 0.271 | 0.313 | 0.257 | 0.309 | 0.288 | 0.707 | 0.58 | 0.522 | 0.573 | 0.599 | 0.576 | 0.57 | 0.663
NCI-H441 | 0.47 | 0.451 | 0.459 | 0.288 | 0.449 | 0.592 | 0.556 | 0.67 | 0.592 | 0.657 | 0.76 | 0.523 | 0.561 | 0.574 | 0.809 | 0.932 | 0.793 | 0.682
LOU-NH91 | 0.57 | 0.344 | 0.481 | 0.448 | 0.47 | 0.953 | 0.987 | 0.963 | 0.88 | 0.886 | 0.949 | 0.955 | 0.894 | 0.893 | 0.753 | 0.728 | 0.629 | 0.684
NCI-H3122 | 1.05 | 1.03 | 1.07 | 1.1 | 1.08 | 1.05 | 0.944 | 0.972 | 1.01 | 1.03 | 0.428 | 0.579 | 0.416 | 0.53 | 0.881 | 0.822 | 0.804 | 0.763
NCI-H460 | 1.01 | 1.26 | 1.13 | 1.04 | 1.12 | 0.747 | 0.752 | 0.687 | 0.774 | 0.64 | 0.537 | 0.438 | 0.327 | 0.344 | 0.514 | 0.468 | 0.473 | 0.403
NCI-H650 | 0.679 | 0.604 | 0.759 | 0.758 | 0.635 | 0.714 | 0.79 | 0.959 | 0.766 | 0.789 | 0.424 | 0.363 | 0.381 | 0.368 | 1.03 | 1.33 | 1.04 | 1.08
NCI-H661 | 0.883 | 0.75 | 0.739 | 0.972 | 0.855 | 0.566 | 0.658 | 0.508 | 0.546 | 0.576 | 0.796 | 0.855 | 0.716 | 0.725 | 0.736 | 0.7 | 0.699 | 0.699
